Experimental data taken from patent US20250084097A1, “MACROCYCLIC AMIDE COMPOUNDS AND APPLICATION THEREOF” (Medshine Discovery Inc., priority 2021, published 2025).
Where two headings read alike, the source gives them in different places.

Legend:
[1] = system: Ba/F3-FL-EGFR (del19-E746-A750/T790M/C797S) phosphorylation; test: Inhibition of EGFR phosphorylation in cells, Western Blot; assay type: cell-based; conditions: p-EGFR, 4 h incubation, read-out: Cell half-maximal inhibition concentration IC50 Ba/F3-FL-EGFR (del19-E746-A750/T790M/C797S)
From the text: (§1) Autophosphorylation of EGFR can activate its intracellular kinase pathway. In this assay, EGFR phosphorylation was quantified in order to detect the inhibitory effect of compounds on Ba/F3-FL-EGFR(L858R/T790M/C797S) and Ba/F3-FL-EGFR (del19-E746-A750/T790M/C797S) phosphorylation.
(§2) The cells in the logarithmic growth phase were taken and counted with a cell counter. The cell viability rate was required to be >90%. Cells were inoculated into a sterile 6-well plate with 2×10^6 cells per well, replenished with 1640 complete medium to 1998 μL, and the 6-well plate was incubated in a constant temperature incubator at 37° C. and 5% CO2.
(§3) The 6-well plate was taken out, and the cells were normal under microscope. In an ultra-clean bench, 2 μL of each of the prepared gradient diluted 1000× stock solution was added to the 6-well plate inoculated with cells, and the 6-well plate was gently shaken to distribute the compounds evenly.
(§4) The 6-well plate was incubated statically in a constant temperature incubator at 37° C., 5% CO2 for 4 h;
(§5) After the cells were cultured statically for 4 hours, the culture medium was collected, and centrifuged at 8000 rpm for 3 minutes. The cells were collected in a 1.5 mL EP tube. The supernatant was discarded, and the total protein was extracted;
(§6) Cells from each group were collected into 1.5 ml EP tubes and a certain volume of Lysis Buffer (RIPA:protease/phosphatase inhibitor=100:1) was added (˜66 μL per 2×10^6 cells, depending on the cell amount). After adding Lysis Buffer, the EP tubes were placed on ice quickly and vortexed using a vortexer to fully lyse the cells. Be careful not to vortex for too long, and quickly place the sample tube on ice to lysis, shaking every 10 min for three times. At the end of the lysis time, the EP tubes were centrifuged at 12000 rpm for 10 min in a pre-cooled centrifuge at 4° C. After centrifugation, the supernatant was transferred to new 1.5 ml EP tubes which were labeled.
(§7) Using the BCA Protein Concentration Assay Kit, protein quantification of the sample lysis supernatant was performed according to the kit instructions. After the protein concentration was determined, the lysis supernatant with the lowest concentration was used as the reference, and the rest of the lysis supernatants were diluted to that concentration using Lysis Buffer in a volume calculated according to the BCA standard curve. To the diluted lysis supernatant, the corresponding volume of 5× loading Buffer was added. The diluted solution was heated in a metal bath at 95° C. for 10 min, then placed on ice to be cooled, and stored in a refrigerator at −20° C.
(§8) The glass plates used for making glue were cleaned, and two glass plates were aligned the bottoms, put into the bracket, and fixed with clips. The separation gel according to the 10% separation gel formula was prepared, mixed well and then added to the glass plate. The addition was stopped until the separation gel reached about ¾ of the glass plate and the glue was pressed with 75% ethanol. After 90 minutes, the separation gel was solidified. The 75% ethanol was poured out. Filter paper was used to absorb the remaining ethanol solution on the glass plate. A 5% stacking gel was prepared, mixed evenly and added to the glass plate. Then a spiking comb was inserted. After 60 minutes, the glue was made.
(§9) The gel plate was fixed in an electrophoresis tank, and the inner tank was filled with 1× electrophoresis solution, while in the outer tank the electrophoresis solution was over the metal wire. The spiking comb was removed, the protein samples of Ba/F3-FL-EGFR (L858R/T790M/C797S) and Ba/F3-FL-EGFR (del19-E746-A750/T790M/C797S) cells were sampled 25 μg, and Protein Ladder was then added. Turning on the power supply, electrophoresis with a constant voltage of 70 V lasted for 30 min, electrophoresis was continued at constant voltage 86 V for 1 h 20 min until the bromophenol blue indicator band reached the bottom and electrophoresis was stopped. […]

[2] = system: Ba/F3-FL-EGFR(L858R/T790M/C797S) phosphorylation; test: as above; assay type: cell-based; conditions: p-EGFR, 4 h incubation, read-out: Cell half-maximal inhibition concentration IC50 Ba/F3-FL-EGFR(L858R/T790M/C797S)
From the text: as §1, §2, §3, §4, §5, §6, §7, §8, §9

[3] = Pharmacokinetic assay of compounds in mice; assay type: in vivo, male ICR mice; conditions: for Vd / AUC(0-t) / half-life / C0 / bioavailability / Cmax / Tmax: male, ICR, mouse, plasma; for Vd: read-out: Apparent volume of distribution Vd; for AUC(0-t): read-out: Area under the curve AUC0-last; for half-life: read-out: Half-life T1/2 (converted); for C0: read-out: Starting concentration C0; for bioavailability: PO 10 mg/kg vs IV 3 mg/kg, read-out: Bioavailability F %; for Cmax: read-out: Peak concentration Cmax; for Tmax: read-out: Time to peak Tmax
From the text: Assay purpose: 7-9-week-old male ICR mice were used as test animals. LC/MS/MS method was used to determine the drug concentration of the compound in the plasma at different times after a single intravenous injection (IV) and oral administration (PO) of the compound, to study the pharmacokinetic behavior of the compounds of the present disclosure in mice, and to evaluate their pharmacokinetic characteristics.
Formulation of drug: The compounds were formulated as solutions in the respective solvents for administration in IV (intravenous injection) and PO (oral administration) groups. The dose of each compound was 3 mg/kg for IV and 10 mg/kg for PO, and the vehicle was 10% DMSO+10% solutol+80% (10% HP-β-CD).

SMILES | IC50 [1] | IC50 [2] | Apparent clearance Cl ([3]; IV 3 mg/kg) | Vd ([3]; IV 3 mg/kg) | AUC(0-t) ([3]; IV 3 mg/kg) | half-life ([3]; IV 3 mg/kg) | C0 ([3]; IV 3 mg/kg) | bioavailability [3] | AUC(0-t) ([3]; PO 10 mg/kg) | Cmax ([3]; PO 10 mg/kg) | Tmax ([3]; PO 10 mg/kg)
Cc1cc2cc(n1)-c1cnn(C)c1OC[C@H]1CC[C@H](C1)CN1/C(=N/C2=O)Nc2ccc(N=S(C)(C)=O)cc21 (single isomer, unassigned) [WX-027A] | 1.9 nM | 2.1 nM | 14.2 mL/min/kg | 1 L/kg | 7.7 µM·h | 1.1 h | 6.85 µM | 64% | 15.7 µM·h | 5.91 µM | 0.8 h
Cc1cc2cc(n1)-c1cnn(C)c1OCCC[C@@H](C)CN1/C(=N/C2=O)Nc2ccc(N=S(C)(C)=O)c(Cl)c21 [WX-019] | – | – | 8.6 mL/min/kg | 1.6 L/kg | 10.6 µM·h | 2.5 h | 5.73 µM | 65% | 23.2 µM·h | 3.92 µM | 1 h
Cc1cc2cc(n1)-c1cnn(C)c1OCCC[C@@H](C)CN1/C(=N/C2=O)Nc2ccc(N=S3(=O)CCOCC3)cc21 [WX-013] | 1.3 nM | 2.9 nM | 4.7 mL/min/kg | 1 L/kg | 18.9 µM·h | 3.3 h | 12.1 µM | 34% | 21.5 µM·h | 3.94 µM | 1 h
Cc1cc2cc(n1)-c1cnn(C)c1OCCC[C@@H](C)CN1/C(=N/C2=O)Nc2ccc(N=S3(=O)CCCC3)cc21 [WX-010 (trifluoroacetate)] | 0.8 nM | 2.3 nM | 5.7 mL/min/kg | 1 L/kg | 16.1 µM·h | 2.8 h | 8.14 µM | 56% | 30.1 µM·h | 4.49 µM | 1 h
Cc1cc2cc(n1)-c1cnn(C)c1OCCC[C@@H](C)CN1/C(=N/C2=O)Nc2ccc(N=S(C)(C)=O)cc21 [WX-006] | 0.6 nM | 3.4 nM | 14.6 mL/min/kg | 1.9 L/kg | 6.54 µM·h | 3.6 h | 8.14 µM | 83% | 18.1 µM·h | 3.59 µM | 1.5 h
